Consider 13 compounds from ChEMBL document CHEMBL4152365, “Discovery of DS-6930, a potent selective PPARγ modulator. Part I: Lead identification” (Bioorg Med Chem, 2018).

Each structure is given as a SMILES string. In brackets after ≈: the same amount, converted by molar mass.

One data set deals with Mus musculus. In words: Glucose-lowering effect in hyperglycemic KK/Ta mouse assessed as reduction in plasma glucose level at 30 mg/kg/day, po administered through diet for 3 days relative to control. The class given is functional. More on the design: scale not given: the % may be the effect or the level left.
Details: not given
With `Cn1c(COc2cccc(C(=O)O)c2)nc2ccc(Oc3cc(F)cc(F)c3)cc21`, the Activity is recorded as 39.5%.

Another data set concerns the target T1, Peroxisome proliferator-activated receptor alpha (Homo sapiens) (UniProt Q07869).
T1 sequence (whole entry): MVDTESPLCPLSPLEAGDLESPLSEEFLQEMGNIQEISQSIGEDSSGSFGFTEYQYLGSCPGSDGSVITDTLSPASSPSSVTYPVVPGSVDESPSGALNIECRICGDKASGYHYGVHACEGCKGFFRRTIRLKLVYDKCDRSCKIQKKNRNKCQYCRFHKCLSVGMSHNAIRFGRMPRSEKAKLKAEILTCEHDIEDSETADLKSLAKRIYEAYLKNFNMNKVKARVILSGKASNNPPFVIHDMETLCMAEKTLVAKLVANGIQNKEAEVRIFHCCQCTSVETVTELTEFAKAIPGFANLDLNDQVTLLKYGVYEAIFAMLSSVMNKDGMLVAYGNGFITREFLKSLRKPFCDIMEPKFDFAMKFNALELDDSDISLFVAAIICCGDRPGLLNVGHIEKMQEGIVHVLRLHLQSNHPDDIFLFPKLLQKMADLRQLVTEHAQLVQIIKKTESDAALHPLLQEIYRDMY
Kind of data set: Agonist activity at recombinant human GAL4-DBD fused PPARalpha LBD expressed in COS7 cells at 10 uM after 24 hrs by luciferase reporter gene assay relative to 2-(4-tert-Butylphenoxy)-3-[4-[2-[(4-pyridin-2-ylbenzoyl)amino]ethoxy]. The class given is cell-based.
Details: not given
A general note: Reporter assays use an easily measured gene product as a stand-in for the process of interest.
Take `Cn1c(COc2cccc(C(=O)O)c2)nc2ccc(Oc3cc(F)cc(F)c3)cc21`: the Emax came to 33%.

Test system in the next data set: not listed separately
Kind of data set: Aqueous thermodynamic solubility of the compound in pH 6.8 solution up to 4 hrs by HPLC-UV analysis. It is filed as physicochemical. The conditions noted are these: read-out: Therm_solubility.
With `Cn1c(COc2cccc(C(=O)O)c2)nc2ccc(Oc3cc(F)cc(F)c3)cc21`, the solubility thermodynamic at 4 h is 10 µg/mL (≈ 24.4 µM).

A further data set has as its system Mus musculus. Kind of data set: Toxicity in hyperglycemic KK/Ta mouse assessed as body weight gain at 30 mg/kg/day, po administered through diet for 3 days relative to control. The note with it: in vivo, 72 h. The class given is organism-based.
Turning to `Cn1c(COc2cccc(C(=O)O)c2)nc2ccc(Oc3cc(F)cc(F)c3)cc21`, the Activity came out at 4.4%.

Test system in a further data set: not listed separately
In words: 1-octanol/PBS distribution co-efficient, log D of the compound at […] at pH 7.4 after 30 mins by HPLC-MS/MS analysis. The class given is physicochemical.
Details: not given
`Cn1c(COc2cccc(C(=O)O)c2)nc2ccc(Oc3cc(F)cc(F)c3)cc21`: the logD at 0.5 h is 2.3.

Test system in another data set: not listed separately
Kind of data set: Plasma concentration in hyperglycemic KK/Ta mouse at 30 mg/kg/day, po administered through diet for 3 days measured on day 3 post last dose. It is filed as ADME, organism-based.
Details: not given
The compound `Cn1c(COc2cccc(C(=O)O)c2)nc2ccc(Oc3cc(F)cc(F)c3)cc21` returned a concentration at 72 h of 360 ng/mL.

Another data set has as its target T2, Peroxisome proliferator-activated receptor gamma (Homo sapiens) (UniProt P37231).
T2 sequence (whole entry): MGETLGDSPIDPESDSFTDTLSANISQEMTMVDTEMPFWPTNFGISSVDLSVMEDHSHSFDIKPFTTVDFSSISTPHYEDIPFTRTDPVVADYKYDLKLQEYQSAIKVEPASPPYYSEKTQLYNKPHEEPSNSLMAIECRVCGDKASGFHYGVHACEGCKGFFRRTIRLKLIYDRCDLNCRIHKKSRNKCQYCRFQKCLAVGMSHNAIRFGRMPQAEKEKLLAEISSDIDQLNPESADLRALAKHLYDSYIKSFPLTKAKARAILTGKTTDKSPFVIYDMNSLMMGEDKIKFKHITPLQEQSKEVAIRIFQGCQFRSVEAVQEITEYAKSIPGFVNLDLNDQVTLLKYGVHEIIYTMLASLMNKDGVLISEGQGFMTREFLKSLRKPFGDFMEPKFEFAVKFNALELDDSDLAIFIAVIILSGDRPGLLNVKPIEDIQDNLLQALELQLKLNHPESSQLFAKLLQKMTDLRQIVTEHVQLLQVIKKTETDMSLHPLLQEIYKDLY
In words: Agonist activity at recombinant human GAL4-DBD fused PPARgamma LBD expressed in COS7 cells at 10 uM after 24 hrs by luciferase reporter gene assay relative to rosiglitazone. The class given is cell-based.
Details: not given
On to `CC(=O)c1ccc(OCc2nc3ccc(Oc4cc(C)c(N)c(C)c4)cc3n2C)cc1`, for which the Emax stood at 70%.
On to `COc1ccc2nc(COc3ccc(CC4SC(=O)NC4=O)cc3)n(C)c2c1` (stereo not drawn) [RIVOGLITAZONE], for which the Emax is 126%.
On to `Cc1cc(Oc2ccc3nc(COc4ccc(C(=O)O)cc4)n(C)c3c2)cc(C)c1N`, for which the Emax was 91%.
With `Cc1cc(Oc2ccc3nc(COc4ccc(CC5SC(=O)NC5=O)cc4)n(C)c3c2)cc(C)c1N` (stereo not drawn) [EFATUTAZONE], the Emax came to 100%.
On to `Cc1cc(Oc2ccc3nc(COc4ccccc4C#N)n(C)c3c2)cc(C)c1N`, for which the Emax was found to be 80%.
In the case of `Cn1c(COc2cccc(C(=O)O)c2)nc2ccc(Oc3cc(F)cc(F)c3)cc21`, the Emax worked out at 54%.
With `Cc1cc(Oc2ccc3nc(COc4ccccc4)n(C)c3c2)cc(C)c1N`, the Emax was determined as 73%.
Same read-out and setting: in the case of `Cc1cc(Oc2ccc3nc(COc4ccccc4C(=O)O)n(C)c3c2)cc(C)c1N` it was 52%; in that of `Cc1cc(Oc2ccc3nc(COc4cccc(C#N)c4)n(C)c3c2)cc(C)c1N`, 92%.
With `CC(=O)c1ccccc1OCc1nc2ccc(Oc3cc(C)c(N)c(C)c3)cc2n1C`, the Emax amounted to 96%.
Still for that read-out and setting: in the case of `CCc1ccc2ccc(F)cc2c1CNC(=O)c1c(OC)cc(O)c2c1OC1=CC(O)=C(C(C)=O)C(=O)[C@]12C` it was 64%; in that of `CC(=O)c1cccc(OCc2nc3ccc(Oc4cc(C)c(N)c(C)c4)cc3n2C)c1`, 86%.
The same measure, in the same setting: to `Cc1cc(Oc2ccc3nc(COc4ccc(C#N)cc4)n(C)c3c2)cc(C)c1N` belongs 79%.

A further data set deals with T3, Peroxisome proliferator-activated receptor gamma (Homo sapiens, UniProt P37231).
T3 sequence (P37231 whole entry): T2 sequence (whole entry)
In words: Agonist activity at recombinant human GAL4-DBD fused PPARgamma LBD expressed in COS7 cells after 24 hrs by luciferase reporter gene assay. It is filed as cell-based.
Details: not given
With `CC(=O)c1ccc(OCc2nc3ccc(Oc4cc(C)c(N)c(C)c4)cc3n2C)cc1`, the EC50 is 340 nM.
Turning to `COc1ccc2nc(COc3ccc(CC4SC(=O)NC4=O)cc3)n(C)c2c1` (stereo not drawn) [RIVOGLITAZONE], the EC50 amounted to 43 nM.
For `Cc1cc(Oc2ccc3nc(COc4ccc(C(=O)O)cc4)n(C)c3c2)cc(C)c1N`, the EC50 was 797 nM.
Regarding `Cc1cc(Oc2ccc3nc(COc4ccc(CC5SC(=O)NC5=O)cc4)n(C)c3c2)cc(C)c1N` (stereo not drawn) [EFATUTAZONE], the EC50 stood at 0.038 nM.
The same measure, in the same setting: to `Cc1cc(Oc2ccc3nc(COc4ccccc4C#N)n(C)c3c2)cc(C)c1N` belongs 391 nM; to `Cn1c(COc2cccc(C(=O)O)c2)nc2ccc(Oc3cc(F)cc(F)c3)cc21`, 95 nM.
As for `Cc1cc(Oc2ccc3nc(COc4ccccc4)n(C)c3c2)cc(C)c1N`, the EC50 came out at 318 nM.
For `Cc1cc(Oc2ccc3nc(COc4ccccc4C(=O)O)n(C)c3c2)cc(C)c1N`, the EC50 was found to be 6090 nM.
Take `Cc1cc(Oc2ccc3nc(COc4cccc(C#N)c4)n(C)c3c2)cc(C)c1N`: the EC50 stood at 43 nM.
`CC(=O)c1ccccc1OCc1nc2ccc(Oc3cc(C)c(N)c(C)c3)cc2n1C`: the EC50 was 356 nM.
Take `CCc1ccc2ccc(F)cc2c1CNC(=O)c1c(OC)cc(O)c2c1OC1=CC(O)=C(C(C)=O)C(=O)[C@]12C`: the EC50 was 12 nM.
Take `CC(=O)c1cccc(OCc2nc3ccc(Oc4cc(C)c(N)c(C)c4)cc3n2C)c1`: the EC50 is 65 nM.
With `Cc1cc(Oc2ccc3nc(COc4ccc(C#N)cc4)n(C)c3c2)cc(C)c1N`, the EC50 is 395 nM.

The target in the next data set is T4, Peroxisome proliferator-activated receptor alpha (Homo sapiens, UniProt Q07869).
T4 sequence (Q07869 whole entry): T1 sequence (whole entry)
In words: Agonist activity at recombinant human GAL4-DBD fused PPARalpha LBD expressed in COS7 cells after 24 hrs by luciferase reporter gene assay.
Details: not given
The class given is cell-based.
In the case of `Cn1c(COc2cccc(C(=O)O)c2)nc2ccc(Oc3cc(F)cc(F)c3)cc21`, the EC50 is more than 10000 nM.

Usually logD stands for lipophilicity at a set pH, counting ionised and neutral species. As a reminder, the EC50 is the concentration giving half of the maximal effect.
